Where “and” joins values, the source holds several entries; their conditions need not be identical. Equal entries are not always repeated. Records with an inconclusive call do not appear.
Test system: CD8F1 mice, subcutaneous mammary adenocarcinoma, T/C%
Assay: NCI In Vivo Anticancer Drug Screen. Data for tumor model Mammary Adenocarcinoma CD8F1 (subcutaneous) in CD8F1
Details: higher = larger tumour
Procedure: The antitumor activity of compounds was measured in mice bearing transplantable tumors. Survival or tumor size were measured and the results are expressed as the measurement made in the treated group (T) divided by the measurement made in the vehicle treated control group (C). The tumor model used in this assay is Mammary Adenocarcinoma CD8F1 (subcutaneous) in CD8F1

[1] = endpoint: median tumor weight (est.), dose: 12.5 mg/kg/injection, schedule: Q07DX005 (ip), vehicle: saline
[2] = endpoint: median tumor weight (est.), dose: 50.0 mg/kg/injection, schedule: Q07DX005 (ip), vehicle: saline
[3] = endpoint: median tumor weight (est.), dose: 200.0 mg/kg/injection, schedule: Q07DX005 (ip), vehicle: saline
[4] = endpoint: median tumor weight (est.), dose: 400.0 mg/kg/injection, schedule: Q07DX005 (ip), vehicle: saline
[5] = endpoint: median tumor weight (est.), dose: 25.0 mg/kg/injection, schedule: Q07DX005 (ip), vehicle: saline
[6] = endpoint: median tumor weight (est.), dose: 100.0 mg/kg/injection, schedule: Q07DX005 (ip), vehicle: saline
[7] = endpoint: median tumor weight (est.), dose: 25.0 mg/kg/injection, schedule: Q07DX005 (ip), vehicle: Klucel (hydroxypropylcellulose) (HPC)
[8] = endpoint: median tumor weight (est.), dose: 200.0 mg/kg/injection, schedule: Q07DX005 (ip), vehicle: Klucel (hydroxypropylcellulose) (HPC)
[9] = endpoint: median tumor weight (est.), dose: 400.0 mg/kg/injection, schedule: Q07DX005 (ip), vehicle: Klucel (hydroxypropylcellulose) (HPC)
[10] = endpoint: median tumor weight (est.), dose: 25.0 mg/kg/injection, schedule: Q07DX005 (ip), vehicle: saline with Tween-80
[11] = endpoint: median tumor weight change, dose: 62.5 mg/kg/injection, schedule: Q01DX001 (ip), vehicle: saline with Tween-80
[12] = endpoint: median tumor weight (est.), dose: 100.0 mg/kg/injection, schedule: Q07DX005 (ip), vehicle: Klucel (hydroxypropylcellulose) (HPC)
[13] = endpoint: median tumor weight (est.), dose: 25.0 mg/kg/injection, schedule: Q07DX005 (ip), vehicle: suspension in saline
[14] = endpoint: median tumor weight (est.), dose: 50.0 mg/kg/injection, schedule: Q07DX005 (ip), vehicle: suspension in saline
[15] = endpoint: median tumor weight (est.), dose: 100.0 mg/kg/injection, schedule: Q07DX005 (ip), vehicle: suspension in saline

## C=CS(=O)(=O)c1ccccc1
endpoint: mean tumor weight, dose: 25.0 mg/kg/injection, schedule: Q07DX005 (ip), vehicle: saline with Tween-80
  T/C: 110 % of control
endpoint: mean tumor weight, dose: 50.0 mg/kg/injection, schedule: Q07DX005 (ip), vehicle: saline with Tween-80
  T/C: 117 % of control
endpoint: mean tumor weight, dose: 100.0 mg/kg/injection, schedule: Q07DX005 (ip), vehicle: saline with Tween-80
  T/C: 114 % of control
endpoint: mean tumor weight, dose: 200.0 mg/kg/injection, schedule: Q07DX005 (ip), vehicle: saline with Tween-80
  T/C: 154 % of control

## COc1cc(C[C@H]2c3cc(OC)c(OC)cc3CCN2C)c(Oc2cc3c(cc2OC)-c2c(OC)c(OC)cc4c2[C@H](C3)N(C)CC4)cc1OC
[1]
  T/C: 118 % of control
[2]
  T/C: 95 % of control
[3]
  T/C: 52 % of control
[4]
  T/C: 67 % of control

## NC(=O)NO
[5]
  T/C: 67 % of control
[6]
  T/C: 116 % of control
[3]
  T/C: 56 % of control
[4]
  T/C: 48 % of control
endpoint: median tumor weight (est.), dose: 800.0 mg/kg/injection, schedule: Q07DX005 (ip), vehicle: saline
  T/C: 59 % of control

## Ic1ncnc2c1ncn2C1CCCO1 (stereo not given)
[7]
  T/C: 36 % of control
[8]
  T/C: 55 % of control and 64 % of control
[9]
  T/C: 41 % of control

## COC(=O)C(Cl)(Cl)N=Nc1c(Cl)cc(Cl)c(C)c1Cl
[10]
  T/C: 104 % of control
endpoint: median tumor weight (est.), dose: 100.0 mg/kg/injection, schedule: Q07DX005 (ip), vehicle: saline with Tween-80
  T/C: 71 % of control
endpoint: median tumor weight (est.), dose: 200.0 mg/kg/injection, schedule: Q07DX005 (ip), vehicle: saline with Tween-80
  T/C: 85 % of control and 110 % of control
endpoint: median tumor weight change, dose: 400.0 mg/kg/injection, schedule: Q01DX001 (ip), vehicle: saline with Tween-80
  T/C: 78 % of control

## C[N+](C)(C)c1ncnc2c1ncn2C1CCCO1 (stereo not given)
[1]
  T/C: 85 % of control
[5]
  T/C: 89 % of control
[2]
  T/C: 87 % of control
[6]
  T/C: 92 % of control

## O=Cc1ccc([N+](=O)[O-])s1
endpoint: median tumor weight (est.), dose: 6.25 mg/kg/injection, schedule: Q07DX005 (ip), vehicle: saline with Tween-80
  T/C: 225 % of control
endpoint: median tumor weight (est.), dose: 12.5 mg/kg/injection, schedule: Q07DX005 (ip), vehicle: saline with Tween-80
  T/C: 71 % of control
[10]
  T/C: 295 % of control
endpoint: median tumor weight (est.), dose: 50.0 mg/kg/injection, schedule: Q07DX005 (ip), vehicle: saline with Tween-80
  T/C: 156 % of control

## Nc1nc(N)c2cc(S(=O)(=O)c3ccccc3)ccc2n1
[11]
  T/C: 102 % of control
endpoint: median tumor weight change, dose: 125.0 mg/kg/injection, schedule: Q01DX001 (ip), vehicle: saline with Tween-80
  T/C: 109 % of control
endpoint: median tumor weight change, dose: 250.0 mg/kg/injection, schedule: Q01DX001 (ip), vehicle: saline with Tween-80
  T/C: 67 % of control
endpoint: median tumor weight change, dose: 500.0 mg/kg/injection, schedule: Q01DX001 (ip), vehicle: saline with Tween-80
  T/C: 42 % of control
endpoint: median tumor weight change, dose: 1000.0 mg/kg/injection, schedule: Q01DX001 (ip), vehicle: saline with Tween-80
  T/C: 40 % of control

## CCC1=C[C@H]2CN(CCc3c([nH]c4ccccc34)[C@@](C(=O)OC)(c3cc4c(cc3OC)N(C)[C@H]3[C@@](O)(C(=O)OC)[C@H](OC(C)=O)[C@]5(CC)C=CCN6CC[C@]43[C@@H]65)C2)C1
endpoint: median tumor weight change, dose: 4.0 mg/kg/injection, schedule: Q01DX001 (ip), vehicle: water
  T/C: 100 % of control
endpoint: median tumor weight change, dose: 8.0 mg/kg/injection, schedule: Q01DX001 (ip), vehicle: water
  T/C: 36 % of control

## O=C(C1CO1)C(Cl)(Cl)Cl (stereo not given)
endpoint: median tumor weight change, dose: 4.0 mg/kg/injection, schedule: Q01DX001 (ip), vehicle: saline
  T/C: 81 % of control
endpoint: median tumor weight change, dose: 8.0 mg/kg/injection, schedule: Q01DX001 (ip), vehicle: saline
  T/C: 72 % of control
endpoint: median tumor weight change, dose: 16.0 mg/kg/injection, schedule: Q01DX001 (ip), vehicle: saline
  T/C: 68 % of control
endpoint: median tumor weight change, dose: 125.0 mg/kg/injection, schedule: Q01DX001 (ip), vehicle: saline
  T/C: 34 % of control

## CC1C=NNC1=O (stereo not given)
[7]
  T/C: 20 % of control
endpoint: median tumor weight (est.), dose: 50.0 mg/kg/injection, schedule: Q07DX005 (ip), vehicle: Klucel (hydroxypropylcellulose) (HPC)
  T/C: 187 % of control
[12]
  T/C: 234 % of control
[8]
  T/C: 182 % of control
[9]
  T/C: 23 % of control

## CO[C@@]12[C@H](COC(N)=O)C3=C(C(=O)C(C)=C(N)C3=O)N1C[C@@H]1N[C@@H]12
endpoint: median tumor weight (est.), dose: 0.37 mg/kg/injection, schedule: Q07DX006 (ip), vehicle: saline
  T/C: 63 % of control
endpoint: median tumor weight (est.), dose: 0.75 mg/kg/injection, schedule: Q07DX006 (ip), vehicle: saline
  T/C: 47 % of control
endpoint: median tumor weight (est.), dose: 1.5 mg/kg/injection, schedule: Q07DX006 (ip), vehicle: saline
  T/C: 27 % of control

## CC[n+]1ccc(Nc2ccc(NC(=O)c3ccc(C(=O)Nc4ccc(Nc5cc[n+](CC)c(N)n5)cc4)cc3)cc2)nc1N
endpoint: median tumor weight (est.), dose: 6.25 mg/kg/injection, schedule: Q07DX005 (ip), vehicle: suspension in saline
  T/C: 257 % of control
[13]
  T/C: 77 % of control
[14]
  T/C: 45 % of control
[15]
  T/C: 41 % of control
endpoint: median tumor weight (est.), dose: 200.0 mg/kg/injection, schedule: Q07DX005 (ip), vehicle: suspension in saline
  T/C: 20 % of control

## C[C@]12CCC(=O)C(O)=C1CC[C@@H]1[C@@H]2CC[C@]2(C)C(=O)CC[C@@H]12
endpoint: median tumor weight (est.), dose: 100.0 mg/kg/injection, schedule: Q01DX001 (ip), vehicle: Klucel (hydroxypropylcellulose) (HPC)
  T/C: 182 % of control
[12]
  T/C: 32 % of control
endpoint: median tumor weight (est.), dose: 200.0 mg/kg/injection, schedule: Q01DX001 (ip), vehicle: Klucel (hydroxypropylcellulose) (HPC)
  T/C: 9 % of control
[8]
  T/C: 62 % of control
endpoint: median tumor weight (est.), dose: 400.0 mg/kg/injection, schedule: Q01DX001 (ip), vehicle: Klucel (hydroxypropylcellulose) (HPC)
  T/C: 189 % of control
[9]
  T/C: 32 % of control
endpoint: median tumor weight (est.), dose: 800.0 mg/kg/injection, schedule: Q01DX001 (ip), vehicle: Klucel (hydroxypropylcellulose) (HPC)
  T/C: 68 % of control
endpoint: median tumor weight (est.), dose: 800.0 mg/kg/injection, schedule: Q07DX005 (ip), vehicle: Klucel (hydroxypropylcellulose) (HPC)
  T/C: 54 % of control
endpoint: median tumor weight change, dose: 125.0 mg/kg/injection, schedule: Q01DX001 (ip), vehicle: Klucel (hydroxypropylcellulose) (HPC)
  T/C: 78 % of control
endpoint: median tumor weight change, dose: 250.0 mg/kg/injection, schedule: Q01DX001 (ip), vehicle: Klucel (hydroxypropylcellulose) (HPC)
  T/C: 91 % of control
endpoint: median tumor weight change, dose: 500.0 mg/kg/injection, schedule: Q01DX001 (ip), vehicle: Klucel (hydroxypropylcellulose) (HPC)
  T/C: 72 % of control
endpoint: median tumor weight change, dose: 1000.0 mg/kg/injection, schedule: Q01DX001 (ip), vehicle: Klucel (hydroxypropylcellulose) (HPC)
  T/C: 68 % of control
endpoint: median tumor weight change, dose: 2000.0 mg/kg/injection, schedule: Q01DX001 (ip), vehicle: Klucel (hydroxypropylcellulose) (HPC)
  T/C: 72 % of control

## CC1(C)OC(=O)N(CO)C1=O
[1]
  T/C: 52 % of control
[5]
  T/C: 73 % of control
[2]
  T/C: 9 % of control
[6]
  T/C: 110 % of control
[3]
  T/C: 104 % of control

## CNc1nc2c(N)ncnc2n1C1OC(CO)C(O)C1O (stereo not given)
[13]
  T/C: 89 % of control and 91 % of control
[14]
  T/C: 76 % of control and 96 % of control
[15]
  T/C: 29 % of control

## COC1C=CC23c4cc5c(cc4C(O)OC2CN(C)C3C1)OCO5 (stereo not given)
endpoint: median tumor weight (est.), dose: 18.75 mg/kg/injection, schedule: Q07DX005 (ip), vehicle: saline
  T/C: 154 % of control
endpoint: median tumor weight (est.), dose: 37.5 mg/kg/injection, schedule: Q07DX005 (ip), vehicle: saline
  T/C: 205 % of control
endpoint: median tumor weight (est.), dose: 75.0 mg/kg/injection, schedule: Q07DX005 (ip), vehicle: saline
  T/C: 88 % of control
endpoint: median tumor weight (est.), dose: 150.0 mg/kg/injection, schedule: Q07DX005 (ip), vehicle: saline
  T/C: 120 % of control

## C1CN1c1nc(N2CC2)nc(N2CC2)n1
endpoint: median tumor weight (est.), dose: 0.12 mg/kg/injection, schedule: Q07DX005 (ip), vehicle: saline
  T/C: 64 % of control and 86 % of control
endpoint: median tumor weight (est.), dose: 0.25 mg/kg/injection, schedule: Q07DX005 (ip), vehicle: saline
  T/C: 23 % of control and 28 % of control
endpoint: median tumor weight (est.), dose: 0.5 mg/kg/injection, schedule: Q07DX005 (ip), vehicle: saline
  T/C: 6 % of control and 10 % of control
endpoint: median tumor weight (est.), dose: 1.0 mg/kg/injection, schedule: Q07DX005 (ip), vehicle: saline
  T/C: 1 % of control
endpoint: median tumor weight change, dose: 0.62 mg/kg/injection, schedule: Q01DX001 (ip), vehicle: suspension in saline
  T/C: 18 % of control
endpoint: median tumor weight change, dose: 2.5 mg/kg/injection, schedule: Q01DX001 (ip), vehicle: suspension in saline
  T/C: -17 % of control and -41 % of control

## O=C1N=C(Oc2ccccc2)SC1=O
[11]
  T/C: 43 % of control
endpoint: median tumor weight change, dose: 125.0 mg/kg/injection, schedule: Q01DX001 (ip), vehicle: DMSO
  T/C: 66 % of control
